Where no end group is shown, it is not given here.
Legend:
RAW264.7 cells = settings: at the concentrations tested, 16 h
Experimental: (§4) Macrophage cells seeded in 96-well cell culture plates at a density of 3 × 10^4 cells/well were incubated for 24 h, followed by treatment with LPS or individual WALK peptides and subsequent incubation for 16 h. Cell viability was then assessed by the conventional MTT assay. Briefly, the medium in each well was replaced with 100 μL of RPMI medium containing MTT (500 μg/mL). After 2 h of incubation, the medium was discarded and the insoluble formazan in each well was dissolved in 100 μL of DMSO with shaking. The absorbance of the solution at 550 nm was measured using a spectrophotometric microplate reader to determine the percentage of cell viability relative to that of control cells.

[1] = tested on: Shigella dysentariae ATCC 9752; assay: microbe, parasite or virus in culture; format: cell-based; settings: Gram-negative; broth microdilution, Luria-Bertani broth, 1–64 μg/mL two-fold serial dilutions; triplicate
Experimental: (§1) The antimicrobial activity of each peptide was assessed against four strains, including two Gram-positive (Bacillus subtilis ATCC 6633 and Staphylococcus aureus ATCC 6538p) and two Gram-negative bacteria (Escherichia coli ATCC 25922 and Shigella dysentariae ATCC 9752) cultured in Luria-Bertani broth media. Antibacterial susceptibility was determined as the MIC value, which was measured using the standard broth microdilution method as described previously. […] Two conventional antibiotics, ampicillin and kanamycin, were used as controls to confirm antibiotic susceptibility. The tests were performed in triplicate, and the MIC values that were reproduced twice or thrice in the three independent measurements were employed to calculate the GM value.

[2] = tested on: Escherichia coli ATCC 25922; assay: microbe, parasite or virus in culture; format: cell-based; settings: Gram-negative; broth microdilution, Luria-Bertani broth, 1–64 μg/mL two-fold serial dilutions; triplicate
Experimental: as §1

[3] = tested on: Staphylococcus aureus ATCC 6538p; assay: microbe, parasite or virus in culture; format: cell-based; settings: Gram-positive; broth microdilution, Luria-Bertani broth, 1–64 μg/mL two-fold serial dilutions; triplicate
Experimental: as §1

[4] = tested on: Bacillus subtilis ATCC 6633; assay: microbe, parasite or virus in culture; format: cell-based; settings: Gram-positive; broth microdilution, Luria-Bertani broth, 1–64 μg/mL two-fold serial dilutions; lowest concentration that completely inhibited growth; triplicate
Experimental: as §1

[5] = tested on: two Gram-positive and two Gram-negative bacterial strains; assay: Antimicrobial assay, MICs over the four strains (geometric mean); format: cell-based, B. subtilis, S. aureus, E. coli, S. dysentariae; settings: for GM, geometric mean of MICs: geometric mean of the MICs against the four strains
Experimental: as §1

human red blood cells = settings: for MHC, minimal hemolytic concentration: lowest concentration showing 5% or more hemolysis, human red blood cells 10% v/v in PBS, 1 h, 1–64 μg/mL, A550, relative to 0.2% Triton X-100, triplicate
Experimental: Briefly, suspensions of human red blood cells (10% v/v in PBS) were treated for 1 h with various concentrations (1–64 μg/mL, two-fold serial dilutions) of peptides, followed by measurement of the absorbance of the supernatant at 550 nm. The relative attenuation was determined as the percentage of hemolysis compared to that of the blood suspension treated with 0.2% Triton X-100. The tests were performed in triplicate, and the average values of three independent measurements were recorded.

[6] = tested on: LPS-stimulated RAW264.7 cells; assay: Nitric oxide (NO) production, Griess reaction assay; format: cell-based, murine; settings: LPS 100 ng/mL 16 h, compared with omiganan and WALK155.03 (8 μM)
Experimental: (§2) The macrophage cells were seeded (3 × 10^4 cells/well) and incubated in 96-well plates for 24 h, followed by pretreatments with the WALK peptides at designated concentrations for 5 min and subsequent stimulation with 100 ng/mL of LPS for 16 h. The nitrite concentration in the culture medium was determined using the Griess reaction assay. Briefly, the culture supernatant (100 μL) was mixed with an equal volume of Griess reagent (1% sulfanilamide, 0.1% N-1-naphthyl ethylenediamine) and incubated for 5 min. The absorbance of the resulting chromophoric azo-derivative molecules was measured at 550 nm using a microplate reader with a fresh culture medium as a blank. The amount of nitrite in each sample was determined using a standard curve generated using a range of dilutions of sodium nitrite solutions.

[7] = tested on: iNOS, COX-2 and pro-IL-1β in LPS-stimulated RAW264.7 cells; assay: Immunoblot analysis of pro-inflammatory mediators; format: cell-based, murine; settings: peptide pretreatment 5 min, LPS 100 ng/mL 16 h, Western blot
Experimental: (§3) Figure 5 Anti-inflammatory effects of WALK244.04 peptide in Raw264.7 cells. The cells were pretreated with the peptide at indicated concentrations for 5 min, followed by stimulation with LPS (100 ng/mL) to induce inflammatory responses. (A) iNOS, COX-2, and pro-IL-1β expression levels were estimated by Western blot analysis after 16 h of LPS treatment. (B) The mRNA expression of IL-1β, IL-6, and TNF-α was determined by quantitative real-time PCR upon 3 h of stimulation with LPS. […] (C) The phosphorylation of STAT1 and TBK1 was examined by Western blot analysis at different time points after the LPS treatment.
as §3, with “Figure 6” for “Figure 5”, “of WALK243.04” for “of WALK244.04”, “PCR after” for “PCR upon”, “was analyzed” for “was examined”, “after” for “after the”
The cells were lysed using a RIPA buffer (iNtRON) containing protease and phosphatase inhibitor cocktails. The cell lysates were resolved using 10% SDS-PAGE and transferred to nitrocellulose membranes, which were blocked for 1 h at room temperature (approximately 23 °C) using phosphate-buffered saline with 0.01% Tween-20 (PBST, Merck Korea, Seoul, Korea) containing 10% fat-free dried milk. The blocked membranes were then incubated overnight with primary antibodies at 4 °C, followed by further incubation with horseradish peroxidase-conjugated secondary antibodies for 1 h at room temperature. The membranes were developed using the enhanced chemiluminescence (ECL) detection kit (Advansta, San Jose, CA, USA) and visualized using a luminescent image analyzer (Amersham imager 680, Cytiva Korea, Incheon, Korea).

J774A.1 cells = settings: peptides 8, 4 and 2 μM, 16 h
Experimental: (A) Cytotoxicity was assessed using the MTT assay. The cells were treated with lipopolysaccharides (LPS, 100 ng/mL) or peptides (8–2 μM, two-fold serial dilutions) for 16 h, followed by estimating the cell viability as the percentage of surviving cells compared to that of the control cells.
as §4

[8] = tested on: IL-1β, IL-6 and TNF-α mRNA in LPS-stimulated RAW264.7 cells; assay: Quantitative real-time PCR of pro-inflammatory cytokines; format: cell-based, murine; settings: LPS 100 ng/mL 3 h, real-time qPCR
Experimental: as §3
Figure 6 Anti-inflammatory effects of WALK243.04 peptide in Raw264.7 cells. […] (B) The mRNA expression of IL-1β, IL-6, and TNF-α was determined by quantitative real-time PCR after 3 h of stimulation with LPS. […] (C) The phosphorylation of STAT1 and TBK1 was analyzed by Western blot analysis at different time points after LPS treatment.
The cells were stimulated with LPS (100 ng/mL) for 3 h in the presence or absence of peptide samples, and the total RNA was extracted using a HiGene™ Total RNA Prep Kit (BIOFACT, Daejeon, Korea). cDNA was synthesized from 500 ng of total RNA using a SuperiorScript III cDNA synthesis kit (Enzynomics, Daejeon, Korea). […] The resulting 2^−ΔΔCt value for each group was used to calculate the relative expression ratio of the detected mRNA.

[9] = tested on: phosphorylation of STAT1 and TBK1 in LPS-stimulated RAW264.7 cells; assay: Immunoblot analysis of TRIF-dependent signaling; format: cell-based, murine; settings: Western blot
Experimental: as §3
TRIF-dependent signaling, which is triggered by association with internalized TLR4 upon stimulation by LPS, is known to be mediated by the phosphorylation of the downstream kinase TANK binding kinase-1 (TBK-1) to produce type-I interferons. These interferons induce the expression of downstream target genes via the phosphorylation of the transcription factor signal transducer and the activator of transcription-1 (STAT-1).
The cells were lysed using a RIPA buffer (iNtRON) containing protease and phosphatase inhibitor cocktails. […]

[10] = tested on: LPS-stimulated J774A.1 cells; assay: Nitric oxide (NO) production, Griess reaction assay; format: cell-based, murine; settings: LPS 100 ng/mL 16 h
Experimental: NT, non-treated; LPS, lipopolysaccharides. (A) Cytotoxicity was assessed using the MTT assay. […] (B) Anti-inflammatory potential deduced by NO assay.
as §2

| Substance | cytotoxicity (MTT assay) (RAW264.7 cells) | MIC, S. dysentariae [1] [µg/mL] | MIC, E. coli [2] [µg/mL] | MIC, S. aureus [3] [µg/mL] | MIC, B. subtilis [4] [µg/mL] | GM, geometric mean of MICs [5] [µg/mL] | MHC, minimal hemolytic concentration (human red blood cells) [µg/mL] | NO inhibitory activity [6] | COX-2 and pro-IL-1β expression [7] | iNOS expression [7] | cytotoxicity (MTT assay) (J774A.1 cells) | mRNA expression of IL-1β, IL-6 and TNF-α [8] | MIC values against the strains tested ([5]; against both Gram-positive and Gram-negative bacterial strains, summary) | TBK-1 phosphorylation ([9]; after 1 h of LPS treatment) | STAT-1 phosphorylation ([9]; after 4 h of LPS treatment) | hemolytic activity (human red blood cells; at concentrations under 64 μg/mL, human erythrocytes) | NO inhibition at 8 μM ([10]; peptide 8 μM) | inhibitory effect against NO production ([10]; peptides 8, 4 and 2 μM, pretreatment 5 min, nitrite by Griess) |
| --- | --- | --- | --- | --- | --- | --- | --- | --- | --- | --- | --- | --- | --- | --- | --- | --- | --- | --- |
| LLKWLKKWL-NH2 [WALK243.04] | did not demonstrate significant cytotoxicity | 4 | 4 | 4 | 4 | 4.0 | 64 | superior NO inhibition compared to other positive controls | less potent or weaker than those of WALK244.04 | less potent or weaker than those of WALK244.04 | – | – | – | – | – | – | – | – |
| LLKWLKKWLK-NH2 [WALK244.04] | – | 8 | 4 | 4 | 4 | 4.8 | 64 | most potent NO inhibitory activity | downregulation | substantial downregulation | no significant cytotoxicity | effectively suppressed | approximately 4 μg/mL | attenuated | strong inhibition | no significant hemolytic activity | near-complete NO inhibition | dose-dependent inhibitory effect |

— PMC9686928, “10-mer and 9-mer WALK Peptides with Both Antibacterial and Anti-Inflammatory Activities” (Antibiotics, 2022)
